Experimental data published in US20260256922A1, “PRODRUGS USEFUL FOR REDUCING ANTHRACYCLINE CARDIOTOXICITY” (WAKE FOREST UNIVERSITY HEALTH SCIENCES, priority 2022, published 2026).

Tests used:
[1] = Selectivity of DOX release from c1 towards biological analytes (LCMS); format: physicochemical; conditions: 80 min
Description: FIG. 2. Percentage of released DOX from c1 in response to various biological analytes during an 80 min incubation period at room temperature: (1) ammonium bicarbonate buffer (0.1 M, pH 7.5), (2) 10 μM H2O2, (3) 100 μM cysteine, (4) 100 μM homocysteine, (5) 1 mM glutathione, (6) 10 μM glutathione disulfide, (7) 10 µM sodium nitrite, (8) 10 μM sodium hypochlorite, (9) 10 μM superoxide, (10) 10 μM peroxynitrite. A calibration curve was used to determine the concentration of free DOX in response to each analyte. Plotted as the mean±SEM from three independent experiments.
Selectivity of c1. […] After a reaction time of 80 min, an aliquot was removed and analyzed by LCMS. […]
Analyte stock solutions of glutathione (10 mM), oxidized glutathione (10 mM), homocysteine (10 mM), L-cysteine (10 mM), sodium nitrite (NaNO2 10 mM), superoxide (KO2, 10 mM), sodium peroxynitrite (NaOONO, 10 mM), and sodium hypochlorite (NaClO, 10 mM), were prepared in ammonium bicarbonate buffer (0.1 M pH 7.4). […] After reacting for 80 min, a 1 mL (inject volume 60 μL) aliquot was removed and analyzed by LC-MS (using a C18 analytical column and eluting at 0.4 mL/min with a linear gradient (20-90% v/v) MeOH/H2O (0-2 min), followed by 90% v/v MeOH/H2O (2-19 min)). The signals in the chromatogram were recorded at 500 nm and the peak corresponding to free DOX (7.0 min) was integrated.

[2] = Methylene blue assay of H2S release; format: physicochemical; conditions: for H2S released: c1 40 μM
Description: FIG. 3. Methylene blue assay depicting the time-dependent release of H2S from c1 (40 μM) while in the presence of H2O2 (40 μM) and carbonic anhydrase (CA). Plotted as the mean±SEM from three independent experiments. Data were collected in the presence (circles) or absence (squares) of H2O2.
H2S release from c1. We confirmed the time-dependent liberation of H2S using a methylene blue assay^46 and measuring the resulting absorbance at 670 nm after c1 exposure to H2O2 (FIG. 3, circle). Using a calibration curve generated with Na2S, we determined that c1 (40 μM) was able to release more than 16 μM H2S while in the presence of both H2O2 ([…]) and carbonic anhydrase (CA). […] As a control, the same assay was also run in the absence of CA (data not shown). Under these conditions, c1 exposure to H2O2 yielded small amounts of H2S ([…]). This is presumably due to isocyanate formation and the direct release of H2S from the breakdown of 4.
With carbonic anhydrase: Six separate vials were each filled with 150 μL of freshly degassed PBS (pH 7.4) containing Zn(OAc)2 (2 mM), carbonic anhydrase (0.1 mg/mL), and DOX (80 μM). Next, 150 μL of Na2S stock solution in freshly degassed PBS (pH 7.4), and at differing concentrations (6.25, 12.5, 25.0, 50.0, 100 and 200.0 μM), was added to each vial to give a final volume of 300 μL and a final concentration of 3.125, 6.25, 12.5, 25.0, 50.0, and 100.0 µM Na2S. […] The MB solution was transferred to a 1.0 mL UV cuvette and the absorbance at 670 nm was recorded.
Without carbonic anhydrase: Six separate vials were each filled with 150 μL of freshly degassed PBS (pH 7.4) containing Zn(OAc)2 (2 mM) and DOX (80 μM). […] The MB solution was transferred to a 1.0 mL UV cuvette and the absorbance at 670 nm was recorded. […]
With carbonic anhydrase: To a 20 mL scintillation vial containing 9770 μL of freshly degassed PBS (pH 7.4) was added stock solutions of carbonic anhydrase (50 μL), H2O2 (40 μL), Zn(OAc)2 (100 μL), and c1 (or c2) (40 μL). […] After reacting for 30 min in the dark, absorbance measurements were recorded at 670 nm. […]

COc1cccc2c1C(=O)c1c(O)c3c(c(O)c1C2=O)C[C@@](O)(C(=O)CO)C[C@@H]3O[C@H]1C[C@H](NC(=S)OCc2ccc(B3OC(C)(C)C(C)(C)O3)cc2)[C@H](O)[C@H](C)O1 [c1]
free DOX observed by LCMS ([1]; in the presence of H2O2 (10 μM)): significant levels of free DOX | stability (DOX release) ([1]; buffer alone, reductants (cysteine, homocysteine, glutathione), other oxidants (glutathione disulfide, sodium nitrite, sodium hypochlorite, superoxide, peroxynitrite)): relatively stable | share of H2S production via COS hydrolysis facilitated by CA [2]: ~ 70% | H2S released ([2]; absence of peroxides): negligible amounts of H2S | H2S released ([2]; in presence of H2O2 and carbonic anhydrase): more than 16 μM
